Measured values: patent US6358885B1, “Substituted phenylheterocyclic herbicides” (Mississippi State University, priority 1992, dated 2002)

Key:
rape = test: Test C preemergence/postemergence greenhouse plant response rating 0 to 100; assay type: in vivo, Brassica napus; conditions: POSTEMERGENCE; for Plant response rating, Rape: 0 to 100 scale
How it was run: (§1)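 Compounds in non-phytotoxic solvent applied preemergence to sandy loam one day after planting, postemergence at the 1–4 leaf stage, or to ~2.5 cm floodwater over silt loam.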

cotton = test: Test B preemergence/postemergence greenhouse plant response rating 0 to 10; assay type: in vivo, Gossypium hirsutum; conditions: 0 to 10 scale
How it was run: (§2)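 Test chemicals, dissolved in a non-phytotoxic solvent, were applied to soil at planting and, at the same time, over foliage of seedlings at the one to four leaf stage.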

sugar beet = test: Test C preemergence/postemergence greenhouse plant response rating 0 to 100; assay type: in vivo, Beta vulgaris; conditions: POSTEMERGENCE; for Plant response rating, Sugar beet: 0 to 100 scale
How it was run: as §1

barley = test: as above; assay type: in vivo, Hordeum vulgare; conditions: POSTEMERGENCE; for Plant response rating Barley Igri: 0 to 100 scale
How it was run: as §1

soybean [1] = test: Test B preemergence/postemergence greenhouse plant response rating 0 to 10; assay type: in vivo, Glycine max; conditions: 0 to 10 scale
How it was run: as §2

purple nutsedge = test: as above; assay type: in vivo, Cyperus rotundus; conditions: 0 to 10 scale
How it was run: as §2

wild buckwheat = test: as above; assay type: in vivo, Polygonum convolvulus; conditions: 0 to 10 scale
How it was run: as §2

velvetleaf [2] = test: Test C preemergence/postemergence greenhouse plant response rating 0 to 100; assay type: in vivo, Abutilon theophrasti; conditions: POSTEMERGENCE; for Plant response rating, Velvetleaf: 0 to 100 scale
How it was run: as §1

sorghum = test: as above; assay type: in vivo, Sorghum bicolor; conditions: POSTEMERGENCE; for Plant response rating, Sorghum: 0 to 100 scale
How it was run: as §1

morningglory = test: as above; assay type: in vivo, Ipomoea hederacea; conditions: POSTEMERGENCE; for Plant response rating, Morningglory: 0 to 100 scale
How it was run: as §1

soybean [3] = test: as above; assay type: in vivo, Glycine max; conditions: POSTEMERGENCE; for Plant response rating, Soybean: 0 to 100 scale
How it was run: as §1

lambsquarters [4] = test: Test B preemergence/postemergence greenhouse plant response rating 0 to 10; assay type: in vivo, Chenopodium album; conditions: 0 to 10 scale
How it was run: as §2

rice = test: as above; assay type: in vivo, Oryza sativa; conditions: 0 to 10 scale
How it was run: as §2

lambsquarters [5] = test: Test C preemergence/postemergence greenhouse plant response rating 0 to 100; assay type: in vivo, Chenopodium album; conditions: POSTEMERGENCE; for Plant response rating Lambsquarters: 0 to 100 scale
How it was run: as §1

velvetleaf [6] = test: Test B preemergence/postemergence greenhouse plant response rating 0 to 10; assay type: in vivo, Abutilon theophrasti; conditions: 0 to 10 scale
How it was run: as §2

corn = test: Test C preemergence/postemergence greenhouse plant response rating 0 to 100; assay type: in vivo, Zea mays; conditions: POSTEMERGENCE; for Plant response rating, Corn: 0 to 100 scale
How it was run: as §1

cheatgrass = test: Test B preemergence/postemergence greenhouse plant response rating 0 to 10; assay type: in vivo, Bromus secalinus; conditions: 0 to 10 scale
How it was run: as §2

umbrella sedge = test: Test C flood test plant response rating 0 to 100; assay type: in vivo, Cyperus difformis; conditions: for Plant response rating (0 to 100), Umbrella sedge: under POSTEMERGENCE head (flood test species); for Plant response rating Umbrella sedge: flood test species listed under POSTEMERGENCE, 0 to 100 scale
How it was run: as §1

C=CCN1C(=O)COc2cc(F)c(-c3nn4c(c3Br)CCCC4)cc21 [Compound 41]
6: Plant response rating, Rice (rice; POSTEMERGENCE, Rate 50 g/ha)
50: Plant response rating Barley Igri (barley; 62 g/ha) | Plant response rating, Sorghum (sorghum; 125 g/ha) | Plant response rating, Corn (corn; 125 g/ha)
2: Plant response rating, Cotton (cotton; Rate 200 g/ha, PREEMERGENCE) | Plant response rating, Velvetleaf (velvetleaf [6]; PREEMERGENCE, Rate 50 g/ha)
5: Plant response rating, Cheatgrass (cheatgrass; POSTEMERGENCE, Rate 200 g/ha) | Plant response rating, Cheatgrass (cheatgrass; Rate 200 g/ha, PREEMERGENCE)
0: Plant response rating, Soybean (soybean [1]; PREEMERGENCE, Rate 50 g/ha) | Plant response rating, Soybean (soybean [1]; Rate 200 g/ha, PREEMERGENCE) | Plant response rating, Nutsedge (purple nutsedge; PREEMERGENCE, Rate 50 g/ha) | Plant response rating, Nutsedge (purple nutsedge; Rate 200 g/ha, PREEMERGENCE) | Plant response rating, Rice (rice; PREEMERGENCE, Rate 50 g/ha) | Plant response rating, Rice (rice; Rate 200 g/ha, PREEMERGENCE)
90: Plant response rating Umbrella sedge (umbrella sedge; 125 g/ha)
40: Plant response rating (0 to 100), Barley Igri (barley; Rate 31 g/ha) | Plant response rating, Sorghum (sorghum; 62 g/ha) | Plant response rating, Corn (corn; 62 g/ha) | Plant response rating (0 to 100), Corn (corn; Rate 16 g/ha) | Plant response rating (0 to 100), Corn (corn; Rate 31 g/ha)
3: Plant response rating, Cheatgrass (cheatgrass; POSTEMERGENCE, Rate 50 g/ha) | Plant response rating, Cheatgrass (cheatgrass; PREEMERGENCE, Rate 50 g/ha)
95: Plant response rating (0 to 100), Rape (rape; Rate 16 g/ha)
100: Plant response rating, Rape (rape; 62 g/ha) | Plant response rating, Rape (rape; 125 g/ha) | Plant response rating (0 to 100), Rape (rape; Rate 31 g/ha) | Plant response rating, Sugar beet (sugar beet; 62 g/ha) | Plant response rating, Sugar beet (sugar beet; 125 g/ha) | Plant response rating (0 to 100), Sugar beet (sugar beet; Rate 16 g/ha) | Plant response rating (0 to 100), Sugar beet (sugar beet; Rate 31 g/ha) | Plant response rating, Velvetleaf (velvetleaf [2]; 62 g/ha) | Plant response rating, Velvetleaf (velvetleaf [2]; 125 g/ha) | Plant response rating (0 to 100), Velvetleaf (velvetleaf [2]; Rate 16 g/ha) | Plant response rating (0 to 100), Velvetleaf (velvetleaf [2]; Rate 31 g/ha) | Plant response rating, Morningglory (morningglory; 62 g/ha) | Plant response rating, Morningglory (morningglory; 125 g/ha) | Plant response rating (0 to 100), Morningglory (morningglory; Rate 31 g/ha) | Plant response rating, Soybean (soybean [3]; 125 g/ha) | Plant response rating Lambsquarters (lambsquarters [5]; 62 g/ha) | Plant response rating Lambsquarters (lambsquarters [5]; 125 g/ha) | Plant response rating (0 to 100), Lambsquarters (lambsquarters [5]; Rate 31 g/ha)
30: Plant response rating (0 to 100), Barley Igri (barley; Rate 16 g/ha) | Plant response rating (0 to 100), Sorghum (sorghum; Rate 31 g/ha)
80: Plant response rating Umbrella sedge (umbrella sedge; 62 g/ha)
60: Plant response rating Barley Igri (barley; 125 g/ha) | Plant response rating (0 to 100), Soybean (soybean [3]; Rate 16 g/ha) | Plant response rating (0 to 100), Umbrella sedge (umbrella sedge; Rate 16 g/ha) | Plant response rating (0 to 100), Umbrella sedge (umbrella sedge; Rate 31 g/ha)
9: Plant response rating, Soybean (soybean [1]; POSTEMERGENCE, Rate 50 g/ha)
85: Plant response rating (0 to 100), Lambsquarters (lambsquarters [5]; Rate 16 g/ha)
70: Plant response rating (0 to 100), Morningglory (morningglory; Rate 16 g/ha) | Plant response rating, Soybean (soybean [3]; 62 g/ha) | Plant response rating (0 to 100), Soybean (soybean [3]; Rate 31 g/ha)
20: Plant response rating (0 to 100), Sorghum (sorghum; Rate 16 g/ha)
10: Plant response rating, Cotton (cotton; POSTEMERGENCE, Rate 50 g/ha) | Plant response rating, Cotton (cotton; POSTEMERGENCE, Rate 200 g/ha) | Plant response rating, Soybean (soybean [1]; Rate 200 g/ha, POSTEMERGENCE) | Plant response rating, Wild buckwheat (wild buckwheat; POSTEMERGENCE, Rate 50 g/ha) | Plant response rating, Wild buckwheat (wild buckwheat; PREEMERGENCE, Rate 50 g/ha) | Plant response rating, Wild buckwheat (wild buckwheat; Rate 200 g/ha, POSTEMERGENCE) | Plant response rating, Wild buckwheat (wild buckwheat; Rate 200 g/ha, PREEMERGENCE) | Plant response rating, Lambsquarter (lambsquarters [4]; POSTEMERGENCE, Rate 50 g/ha) | Plant response rating, Lambsquarter (lambsquarters [4]; PREEMERGENCE, Rate 50 g/ha) | Plant response rating, Lambsquarter (lambsquarters [4]; Rate 200 g/ha, POSTEMERGENCE) | Plant response rating, Lambsquarter (lambsquarters [4]; Rate 200 g/ha, PREEMERGENCE) | Plant response rating, Velvetleaf (velvetleaf [6]; POSTEMERGENCE, Rate 50 g/ha) | Plant response rating, Velvetleaf (velvetleaf [6]; Rate 200 g/ha, POSTEMERGENCE) | Plant response rating, Velvetleaf (velvetleaf [6]; Rate 200 g/ha, PREEMERGENCE)
7: Plant response rating, Rice (rice; Rate 200 g/ha, POSTEMERGENCE)
4: Plant response rating, Cotton (cotton; PREEMERGENCE, Rate 50 g/ha) | Plant response rating, Nutsedge (purple nutsedge; POSTEMERGENCE, Rate 50 g/ha) | Plant response rating, Nutsedge (purple nutsedge; Rate 200 g/ha, POSTEMERGENCE)
